ΔTm and IC50 data for 2 molecules are collected here from article PMC4403932 (Journal of Medicinal Chemistry, 2015).

One experiment concerns the target T1, CREBBP (Homo sapiens, UniProt Q92793).
T1 construct: small thermal shits (1.0–1.3 °C) for the bromodomain of CREBBP; made in house
As to the kind of experiment: Protein stability (thermal) shift assay, CREBBP. The class given is binding. The conditions noted are these: compound 10 μM, protein 2 μM; average of triplicate; read-out: ΔTm Shift, CREBBP.

The next experiment concerns the target T2, BRD2(2) (Homo sapiens, UniProt P25440).
T2 construct: made in house
Nature of the experiment: Protein stability (thermal) shift assay, BRD2(2). It counts as binding. The conditions noted are these: compound 10 μM, protein 2 μM; average of triplicate.

The target of a further experiment is T3, BRD9 bromodomain (Homo sapiens, UniProt Q9H8M2).
T3 construct: Q9H8M2-BRD amino acids 120–240; expressed in transfected cells; host or cells: HEK293
T3 sequence (Q9H8M2 120-240): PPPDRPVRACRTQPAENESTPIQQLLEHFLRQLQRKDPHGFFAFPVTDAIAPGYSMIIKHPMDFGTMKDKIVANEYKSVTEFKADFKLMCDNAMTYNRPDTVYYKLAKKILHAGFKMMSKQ
Nature of the experiment: NanoBRET assay, NanoLuc-BRD9 bromodomain / histone H3.3-HaloTag in HEK293 cells. Conditions: 0.005-33 μM, 18 h, read-out: cellular (apparent) IC50, displacement of NanoLuc-BRD9 bromodomain from histone H3.3. It counts as cell-based. The procedure: Twenty hours post-transfection 2 × 10^4 cells were trypsinized, washed with PBS, and exchanged into media containing phenol red-free DMEM, 10% FBS in the absence (control sample), or the presence (experimental sample) of 100 nM NanoBRET 618 fluorescent ligand (Promega). Cell density was adjusted to 2 × 10^5 cells/mL and then replated in a 96-well assay white plate (Corning Costar no. 3917). At the time of replating compound 7d or 11 were added at a final concentration spanning from 0.005 to 33 μM and the plates were incubated for 18 h at 37 °C in the presence of 5% CO2. NanoBRET substrate (Promega) was added to both control and experimental samples at a final concentration of 10 μM. Readings were performed within 5 min using the CLARIOstar reader (BMG Lifetechnologies) equipped with 450/80 nm bandpass and 610 nm long-pass filters. A corrected BRET ratio was calculated and is defined as the ratio of the emission at 610 nm/450 nm for experimental samples (i.e., those treated with NanoBRET fluorescent ligand) subtracted by and the emission at 610 nm/450 nm for control samples (not treated with NanoBRET fluorescent). BRET ratios are expressed as milliBRET units (mBU), where 1 mBU corresponds to the corrected BRET ratio multiplied by 1000.
(In BRET a luciferase serves as donor, and the signal depends on an acceptor being close.)

Several values for one entry are separate records, joined by “and”; a condition that tells them apart may be missing. Equal values may be shown once.

T2 sequence (P25440 344-453 limits assumed): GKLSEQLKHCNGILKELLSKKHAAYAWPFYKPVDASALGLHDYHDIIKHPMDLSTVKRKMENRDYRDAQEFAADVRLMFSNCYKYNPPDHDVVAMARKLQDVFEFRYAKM
T1 sequence (Q92793 1085-1192 limits assumed): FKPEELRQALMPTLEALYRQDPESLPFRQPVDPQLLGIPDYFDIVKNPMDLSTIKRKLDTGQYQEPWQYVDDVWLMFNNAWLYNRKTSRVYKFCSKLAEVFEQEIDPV

In the case of `Nc1nc(-c2cc(Br)cc3c2OCC3)c2nc[nH]c2n1` [Compound 11, 2-Amino-6-(5-bromo-2,3-dihydrobenzo[b]furan-7-yl)-9H-purine], the results for the ΔTm at 10 µM at CREBBP and at BRD2(2) were 3.6 °C and 4.3 °C, respectively. The IC50 at BRD9 bromodomain was 0.48 µM and 0.477 µM.

As for `COc1ccc(Br)cc1-c1nc(N)nc2[nH]cnc12` [Compound 7d, 2-Amino-6-(5-bromo-2-methoxyphenyl)-9H-purine], the figures for the ΔTm at 10 µM at CREBBP and on BRD2(2) were 2.9 °C and 0.9 °C, respectively. The IC50 at BRD9 bromodomain was 3.5 µM.

As a reminder, the IC50 is the midpoint of a concentration-inhibition curve.
